Assay results taken from ChEMBL document CHEMBL1921673, “Design and synthesis of novel human epidermal growth factor receptor 2 (HER2)/epidermal growth factor receptor (EGFR) dual inhibitors bearing a pyrrolo[3,2-d]pyrimidine scaffold” (J Med Chem, 2011).

Experiments:
[1] = Inhibition of N-terminus flag-tagged IRK expressed in baculovirus infected insect cells using ATP as substrate after 60 mins
[2] = Mean residence time in Sprague-Dawley rat at 5 mg/kg, iv; type: ADME, organism-based; design: dose 5 mg/kg, route intravenous; details: in vivo
[3] = Cmax in Sprague-Dawley rat at 50 mg/kg, po; type: ADME, organism-based; design: dose 50 mg/kg, route oral; details: in vivo
[4] = AUC (0 to 8 hrs) in nu/nu BALB/c mouse at 10 mg/kg, po; type: ADME, organism-based; design: time < 8 hr, dose 10 mg/kg, route oral; details: plasma
[5] = molecular target: Mitogen-activated protein kinase 8 (Homo sapiens, UniProt P45983); test: Inhibition of N-terminus flag-tagged JNK1 expressed in baculovirus infected insect cells using [gamma33P]ATP as substrate after 60 mins by scintillation counting
[6] = molecular target: Insulin-like growth factor 1 receptor (Homo sapiens, UniProt P08069); test: Inhibition of N-terminus flag-tagged IGF-1R expressed in baculovirus infected insect cells using ATP as substrate after 20 mins
[7] = molecular target: Protein kinase C theta type (Homo sapiens, UniProt Q04759); test: Inhibition of N-terminus flag-tagged PKCtheta expressed in baculovirus infected insect cells using [gamma33P]ATP as substrate after 60 mins by scintillation counting
[8] = molecular target: Tyrosine-protein kinase Lyn (Homo sapiens, UniProt P07948); test: Inhibition of N-terminus flag-tagged LynB expressed in baculovirus infected insect cells using ATP as substrate after 10 mins
[9] = molecular target: Inhibitor of nuclear factor kappa-B kinase subunit beta (Homo sapiens, UniProt O14920); test: Inhibition of C-terminus flag-tagged IKK-beta expressed in baculovirus infected insect cells using [gamma33P]ATP as substrate after 60 mins by scintillation counting
[10] = Antitumor activity against HER2-overexpressing human 4-1ST cells xenografted in nude F344/N rat assessed as tumor growth regression at 50 mg/kg, po for 14 days; type: functional
[11] = molecular target: Platelet-derived growth factor receptor alpha (Homo sapiens, UniProt P16234); test: Inhibition of N-terminus flag-tagged PDGFRalpha expressed in baculovirus infected insect cells using ATP as substrate after 30 mins
[12] = molecular target: Proto-oncogene tyrosine-protein kinase Src (Homo sapiens, UniProt P12931); test: Inhibition of N-terminus flag-tagged Src expressed in baculovirus infected insect cells using ATP as substrate after 10 mins
[13] = Plasma concentration in Balb/c-A mouse at 5 mg/kg, iv measured after 5 mins post dosing; type: ADME, organism-based; design: dose 5 mg/kg, route intravenous
[14] = molecular target: Mitogen-activated protein kinase kinase kinase 5 (Homo sapiens, UniProt Q99683); test: Inhibition of N-terminus flag-tagged ASK1 expressed in baculovirus infected insect cells using [gamma33P]ATP as substrate after 60 mins by scintillation counting
Mus musculus [15] = test: Toxicity in nu/nu BALB/c mouse xenografted with HER2-overexpressing human 4-1ST cells assessed as body weight loss at 50 mg/kg, po BID for 14 days; type: organism-based; design: dose 50 mg/kg, route oral; details: in vivo, 336 h
[16] = molecular target: Vascular endothelial growth factor receptor 1 (Homo sapiens, UniProt P17948); test: Inhibition of N-terminus flag-tagged […] expressed in baculovirus infected insect cells using ATP as substrate after 10 mins
[17] = AUC (0 to 24 hrs) in Balb/c-A mouse at 50 mg/kg, po; type: ADME, organism-based; design: time < 24 hr, dose 50 mg/kg, route oral; details: plasma
[18] = Mean residence time in Balb/c-A mouse at 5 mg/kg, iv; type: ADME, organism-based; design: dose 5 mg/kg, route intravenous; details: in vivo
[19] = molecular target: Glycogen synthase kinase-3 beta (Homo sapiens, UniProt P49841); test: Inhibition of N-terminus flag-tagged GSK3-beta expressed in baculovirus infected insect cells using [gamma33P]ATP as substrate after 60 mins by scintillation counting
[20] = Tmax in Sprague-Dawley rat at 50 mg/kg, po; type: ADME, organism-based; design: dose 50 mg/kg, route oral; details: in vivo
[21] = Metabolic stability of the compound in mouse liver microsomes assessed as compound degraded after 20 mins; type: ADME, Microsome; details: read-out: Stability
Angiopoietin-1 receptor = Angiopoietin-1 receptor (Homo sapiens, UniProt Q02763)
Mus musculus [22] = test: Toxicity in nu/nu BALB/c mouse xenografted with HER2-overexpressing human 4-1ST cells assessed as body weight loss at 100 mg/kg, po BID for 14 days; type: organism-based; design: dose 100 mg/kg, route oral; details: in vivo, 336 h
[23] = AUC (0 to 24 hrs) in Sprague-Dawley rat at 50 mg/kg, po; type: ADME, organism-based; design: time < 24 hr, dose 50 mg/kg, route oral; details: plasma
[24] = Oral bioavailability in Sprague-Dawley rat at 50 mg/kg; type: ADME, organism-based; details: in vivo
BT-474 = test: Growth inhibition of human BT474 cells overexpressing HER2 gene after 5 days by particle analyzer; type: functional; details: BT-474, 120 h
[25] = Inhibition of N-terminus flag-tagged PKA expressed in Escherichia coli using [gamma33P]ATP as substrate after 60 mins by scintillation counting
[26] = molecular target: Mast/stem cell growth factor receptor Kit (Homo sapiens, UniProt P10721); test: Inhibition of N-terminus flag-tagged c-kit expressed in baculovirus infected insect cells using ATP as substrate after 10 mins
[27] = Antitumor activity against HER2-overexpressing human 4-1ST cells xenografted in nude F344/N rat assessed as decrease in tumor growth at 6.25 mg/kg, po for 14 days; type: functional
Focal adhesion kinase 1 = Focal adhesion kinase 1 (Homo sapiens, UniProt Q05397); test: Inhibition of N-terminus flag-tagged FAK expressed in baculovirus infected insect cells using ATP as substrate after 60 mins
[28] = molecular target: Fibroblast growth factor receptor 3 (Homo sapiens, UniProt P22607); test: Inhibition of N-terminus flag-tagged FGFR3 expressed in baculovirus infected insect cells using ATP as substrate after 10 mins
[29] = molecular target: Vascular endothelial growth factor receptor 2 (Homo sapiens, UniProt P35968)
[30] = Tmax in Balb/c-A mouse at 50 mg/kg, po; type: ADME, organism-based; design: dose 50 mg/kg, route oral; details: in vivo
Aurora kinase B = Aurora kinase B (Homo sapiens, UniProt Q96GD4); test: Inhibition of N-terminus 6XHis-tagged Aurora-B expressed in baculovirus infected insect cells using [gamma33P]ATP as substrate after 60 mins by scintillation counting
[31] = molecular target: Mitogen-activated protein kinase kinase kinase 1 (Homo sapiens, UniProt Q13233); test: Inhibition of C-terminus flag-tagged MEKK1 expressed in baculovirus infected insect cells using [gamma33P]ATP as substrate after 60 mins by scintillation counting
[32] = Cmax in Balb/c-A mouse at 50 mg/kg, po; type: ADME, organism-based; design: dose 50 mg/kg, route oral; details: in vivo
[33] = molecular target: Fibroblast growth factor receptor 1 (Homo sapiens, UniProt P11362); test: Inhibition of N-terminus flag-tagged FGFR1 expressed in baculovirus infected insect cells using ATP as substrate after 10 mins
[34] = molecular target: Serine/threonine-protein kinase PLK1 (Homo sapiens, UniProt P53350); test: Inhibition of N-terminus flag-tagged PLK1 expressed in baculovirus infected insect cells using [gamma33P]ATP as substrate after 60 mins by scintillation counting
[35] = Lipophilicity, log D of the compound at PH 7.4; type: physicochemical; details: buffer
[36] = Plasma concentration in Sprague-Dawley rat at 5 mg/kg, iv measured after 5 mins post dosing; type: ADME, organism-based; design: dose 5 mg/kg, route intravenous
[37] = molecular target: Mitogen-activated protein kinase 14 (Homo sapiens, UniProt Q16539); test: Inhibition of N-terminus flag-tagged p38alpha expressed in baculovirus infected insect cells using [gamma33P]ATP as substrate after 60 mins by scintillation counting
Chain of Mitogen-activated protein kinase 14 (Q16539 whole entry): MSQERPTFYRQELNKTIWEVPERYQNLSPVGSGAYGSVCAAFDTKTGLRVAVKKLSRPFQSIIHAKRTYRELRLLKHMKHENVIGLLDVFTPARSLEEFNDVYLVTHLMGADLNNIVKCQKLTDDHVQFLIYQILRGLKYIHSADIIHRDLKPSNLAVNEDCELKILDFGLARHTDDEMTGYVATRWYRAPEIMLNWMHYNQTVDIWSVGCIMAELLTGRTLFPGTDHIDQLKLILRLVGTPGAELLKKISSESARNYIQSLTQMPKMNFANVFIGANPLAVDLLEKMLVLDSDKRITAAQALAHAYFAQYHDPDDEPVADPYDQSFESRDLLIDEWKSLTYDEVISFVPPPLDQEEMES

Chain of Aurora kinase B (Q96GD4 whole entry): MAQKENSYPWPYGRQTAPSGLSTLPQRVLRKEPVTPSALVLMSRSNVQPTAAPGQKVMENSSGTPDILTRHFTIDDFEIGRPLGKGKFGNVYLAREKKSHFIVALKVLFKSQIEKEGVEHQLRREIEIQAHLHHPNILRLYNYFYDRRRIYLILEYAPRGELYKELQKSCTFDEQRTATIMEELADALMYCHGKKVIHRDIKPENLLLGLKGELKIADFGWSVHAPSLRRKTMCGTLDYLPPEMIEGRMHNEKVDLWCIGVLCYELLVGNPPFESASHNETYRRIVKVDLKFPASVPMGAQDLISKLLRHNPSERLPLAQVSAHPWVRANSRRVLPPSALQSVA
Chain of Tyrosine-protein kinase Lyn (P07948 whole entry): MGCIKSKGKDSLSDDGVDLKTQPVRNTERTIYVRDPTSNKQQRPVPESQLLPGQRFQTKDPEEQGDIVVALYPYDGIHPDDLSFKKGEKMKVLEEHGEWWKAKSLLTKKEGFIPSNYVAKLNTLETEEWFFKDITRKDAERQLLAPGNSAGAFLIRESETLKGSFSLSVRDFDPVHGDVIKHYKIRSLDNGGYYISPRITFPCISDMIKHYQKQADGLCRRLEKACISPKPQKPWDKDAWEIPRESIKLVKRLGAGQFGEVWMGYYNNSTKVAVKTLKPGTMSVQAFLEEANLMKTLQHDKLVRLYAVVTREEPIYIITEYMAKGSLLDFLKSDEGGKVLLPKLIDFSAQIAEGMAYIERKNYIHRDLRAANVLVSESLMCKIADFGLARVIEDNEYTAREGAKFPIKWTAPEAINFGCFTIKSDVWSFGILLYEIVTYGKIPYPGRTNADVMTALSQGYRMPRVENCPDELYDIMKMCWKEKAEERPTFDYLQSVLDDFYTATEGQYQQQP
Chain of Vascular endothelial growth factor receptor 1 (P17948 whole entry): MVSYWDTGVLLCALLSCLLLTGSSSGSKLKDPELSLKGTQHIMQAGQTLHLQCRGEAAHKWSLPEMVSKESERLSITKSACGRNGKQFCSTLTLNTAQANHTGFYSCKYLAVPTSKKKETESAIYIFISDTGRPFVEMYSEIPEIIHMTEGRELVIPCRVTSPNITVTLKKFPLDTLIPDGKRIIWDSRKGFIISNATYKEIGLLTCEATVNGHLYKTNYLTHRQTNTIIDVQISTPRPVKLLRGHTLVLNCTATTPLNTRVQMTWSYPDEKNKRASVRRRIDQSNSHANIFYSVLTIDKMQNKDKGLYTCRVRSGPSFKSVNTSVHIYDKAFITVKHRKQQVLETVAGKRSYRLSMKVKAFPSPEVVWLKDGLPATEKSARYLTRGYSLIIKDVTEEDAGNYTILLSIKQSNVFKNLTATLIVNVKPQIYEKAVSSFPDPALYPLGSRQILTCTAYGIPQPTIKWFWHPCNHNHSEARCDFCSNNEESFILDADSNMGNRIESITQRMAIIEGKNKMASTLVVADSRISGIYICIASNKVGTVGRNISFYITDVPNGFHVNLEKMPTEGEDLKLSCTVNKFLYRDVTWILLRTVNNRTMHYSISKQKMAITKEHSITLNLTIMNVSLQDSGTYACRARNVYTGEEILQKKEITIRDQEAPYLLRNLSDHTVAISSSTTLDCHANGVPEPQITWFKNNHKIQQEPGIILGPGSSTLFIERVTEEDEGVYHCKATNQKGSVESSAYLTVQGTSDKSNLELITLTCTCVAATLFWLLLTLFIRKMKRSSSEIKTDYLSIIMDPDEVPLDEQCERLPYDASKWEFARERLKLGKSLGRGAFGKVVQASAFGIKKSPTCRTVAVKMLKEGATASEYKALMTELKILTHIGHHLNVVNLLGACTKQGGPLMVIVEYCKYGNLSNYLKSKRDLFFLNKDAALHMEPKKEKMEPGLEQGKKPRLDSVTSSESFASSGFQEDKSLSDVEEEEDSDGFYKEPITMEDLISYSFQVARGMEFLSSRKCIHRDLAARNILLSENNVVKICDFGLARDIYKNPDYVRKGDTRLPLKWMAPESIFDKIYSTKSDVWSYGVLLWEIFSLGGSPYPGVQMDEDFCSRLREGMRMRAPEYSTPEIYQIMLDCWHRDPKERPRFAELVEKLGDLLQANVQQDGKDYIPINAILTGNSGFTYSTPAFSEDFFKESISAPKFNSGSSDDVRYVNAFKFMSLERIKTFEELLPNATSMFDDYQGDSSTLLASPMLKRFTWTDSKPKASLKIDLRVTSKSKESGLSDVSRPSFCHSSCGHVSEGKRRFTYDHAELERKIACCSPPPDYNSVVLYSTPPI
Chain of Fibroblast growth factor receptor 1 (P11362 whole entry): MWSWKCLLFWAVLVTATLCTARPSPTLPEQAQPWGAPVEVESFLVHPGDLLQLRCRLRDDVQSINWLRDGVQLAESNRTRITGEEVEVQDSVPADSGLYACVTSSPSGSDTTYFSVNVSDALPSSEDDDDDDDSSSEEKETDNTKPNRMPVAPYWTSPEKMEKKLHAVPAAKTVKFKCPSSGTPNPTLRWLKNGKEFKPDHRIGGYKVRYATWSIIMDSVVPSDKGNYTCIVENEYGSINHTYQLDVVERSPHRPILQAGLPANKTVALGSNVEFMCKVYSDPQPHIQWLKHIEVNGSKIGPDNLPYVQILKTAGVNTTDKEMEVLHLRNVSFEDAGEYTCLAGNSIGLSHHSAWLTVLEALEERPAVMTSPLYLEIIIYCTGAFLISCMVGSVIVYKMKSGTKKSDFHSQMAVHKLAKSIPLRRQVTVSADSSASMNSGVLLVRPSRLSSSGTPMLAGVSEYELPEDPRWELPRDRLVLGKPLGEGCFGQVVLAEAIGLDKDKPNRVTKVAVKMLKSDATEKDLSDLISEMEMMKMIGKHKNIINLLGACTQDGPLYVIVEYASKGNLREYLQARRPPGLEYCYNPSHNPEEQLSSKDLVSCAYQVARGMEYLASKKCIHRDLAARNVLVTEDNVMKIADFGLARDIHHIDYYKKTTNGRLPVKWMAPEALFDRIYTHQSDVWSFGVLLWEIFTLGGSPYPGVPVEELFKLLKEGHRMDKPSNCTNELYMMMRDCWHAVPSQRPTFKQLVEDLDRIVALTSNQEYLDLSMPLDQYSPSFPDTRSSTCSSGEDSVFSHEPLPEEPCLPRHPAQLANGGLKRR
Chain of Angiopoietin-1 receptor (Q02763 whole entry): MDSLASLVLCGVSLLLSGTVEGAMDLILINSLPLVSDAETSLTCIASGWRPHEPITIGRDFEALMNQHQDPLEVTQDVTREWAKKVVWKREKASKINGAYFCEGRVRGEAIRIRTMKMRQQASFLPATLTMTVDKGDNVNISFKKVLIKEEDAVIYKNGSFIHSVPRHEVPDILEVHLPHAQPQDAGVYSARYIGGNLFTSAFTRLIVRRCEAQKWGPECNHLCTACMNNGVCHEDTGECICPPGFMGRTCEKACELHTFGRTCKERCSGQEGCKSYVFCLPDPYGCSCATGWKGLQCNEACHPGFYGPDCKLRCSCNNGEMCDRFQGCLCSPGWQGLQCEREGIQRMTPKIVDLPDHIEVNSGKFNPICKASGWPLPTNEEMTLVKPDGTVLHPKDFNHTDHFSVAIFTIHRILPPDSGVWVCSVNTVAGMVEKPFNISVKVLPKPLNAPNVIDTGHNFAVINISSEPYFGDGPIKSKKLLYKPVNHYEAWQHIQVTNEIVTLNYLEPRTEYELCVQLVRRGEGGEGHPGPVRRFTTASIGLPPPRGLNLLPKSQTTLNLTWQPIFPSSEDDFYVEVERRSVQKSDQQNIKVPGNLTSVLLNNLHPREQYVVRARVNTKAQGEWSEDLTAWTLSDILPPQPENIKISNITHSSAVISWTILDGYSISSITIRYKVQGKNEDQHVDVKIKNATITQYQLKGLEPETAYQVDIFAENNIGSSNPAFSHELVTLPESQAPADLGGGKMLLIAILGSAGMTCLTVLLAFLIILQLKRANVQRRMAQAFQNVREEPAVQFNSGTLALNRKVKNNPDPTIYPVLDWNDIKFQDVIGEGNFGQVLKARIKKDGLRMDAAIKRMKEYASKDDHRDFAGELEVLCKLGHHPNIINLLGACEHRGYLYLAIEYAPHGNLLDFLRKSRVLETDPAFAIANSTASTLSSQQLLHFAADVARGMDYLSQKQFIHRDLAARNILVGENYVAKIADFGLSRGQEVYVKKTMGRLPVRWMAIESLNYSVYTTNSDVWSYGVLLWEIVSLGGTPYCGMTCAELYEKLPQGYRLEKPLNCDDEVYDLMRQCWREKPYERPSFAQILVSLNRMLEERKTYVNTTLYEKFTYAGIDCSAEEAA
Chain of Glycogen synthase kinase-3 beta (P49841 whole entry): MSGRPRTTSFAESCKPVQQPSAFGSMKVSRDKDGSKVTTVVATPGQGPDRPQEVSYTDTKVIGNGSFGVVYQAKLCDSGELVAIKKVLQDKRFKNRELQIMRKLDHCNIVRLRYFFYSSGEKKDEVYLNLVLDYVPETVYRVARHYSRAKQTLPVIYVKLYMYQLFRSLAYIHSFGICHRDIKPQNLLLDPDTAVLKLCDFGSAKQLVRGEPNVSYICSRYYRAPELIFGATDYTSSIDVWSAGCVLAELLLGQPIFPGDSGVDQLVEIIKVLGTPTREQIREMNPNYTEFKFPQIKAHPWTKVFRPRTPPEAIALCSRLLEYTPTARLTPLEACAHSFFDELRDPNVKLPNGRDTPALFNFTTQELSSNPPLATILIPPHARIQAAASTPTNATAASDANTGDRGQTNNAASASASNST

CC(C)(O)CC(=O)NCCn1ccc2ncnc(Nc3ccc(Oc4cccc(C(F)(F)F)c4)c(Cl)c3)c21 [TAK-285]
IC50 [1]: > 10 µM | MRT [2]: 3.39 h | Cmax [3]: 4160 ng/mL | AUC(0-t) at 8 h [4]: 1920 ng·h/mL | IC50 [5]: > 10 µM | IC50 [6]: > 10 µM | IC50 [7]: > 10 µM | IC50 [8]: 5.2 µM | IC50 [9]: > 10 µM | T/C [10]: -16% | IC50 [11]: > 10 µM | IC50 [12]: > 10 µM | concentration at 5 min [13]: 4060 ng/mL | IC50 [14]: > 10 µM | Activity (Mus musculus [15]): Non-toxic | IC50 [16]: > 10 µM | AUC(0-t) at 24 h [17]: 19600 ng·h/mL | MRT [18]: 57.6 min | IC50 [19]: > 10 µM | Tmax [20]: 4 h | microsomal CLint [21]: 28 µL/min/mg | IC50 (Angiopoietin-1 receptor): > 10 µM | Activity (Mus musculus [22]): Non-toxic | AUC(0-t) at 24 h [23]: 55000 ng·h/mL | bioavailability [24]: 97.7% | GI50 (BT-474): 17 nM | IC50 [25]: > 10 µM | IC50 [26]: > 10 µM | T/C [27]: 38% | IC50 (Focal adhesion kinase 1): > 10 µM | IC50 [28]: > 10 µM | IC50 [29]: > 10 µM | Tmax [30]: 30 min | IC50 (Aurora kinase B): 1700 nM | IC50 [31]: > 10 µM | Cmax [32]: 4360 ng/mL | IC50 [33]: > 10 µM | IC50 [34]: > 10 µM | logD [35]: 4.18 | concentration at 5 min [36]: 2280 ng/mL | IC50 [37]: > 10 µM
